Results taken from paper PMC7129073 (Clinical Microbiology and Infection, 2015).
Values after ≈ are worked out from the molar mass of the structure shown. Where two headings read alike, the source gives them in different places.

Assays:
[1] = system: Escherichia coli (ECO); assay: Broth microdilution; type: cell-based
[2] = system: Proteus mirabilis (PMI); assay: Broth microdilution; type: cell-based
[3] = system: Salmonella, other 49 serotypes; assay: Disk diffusion, food isolates Spain; type: cell-based; conditions: n = 115
[4] = system: Escherichia coli O157:H7; assay: Kirby-Bauer susceptibility; type: cell-based; conditions: 30 strains, 1990–2003
[5] = system: K. oxytoca isolate; assay: MIC of qnr-positive SHV-12 producer; type: cell-based; conditions: Klebsiella oxytoca
[6] = system: nontyphoidal Salmonella; assay: Agar dilution, isolates from chickens 1998–2004; type: cell-based, Salmonella spp.
[7] = system: Shigella spp.; assay: Disk diffusion, stool isolates Tehran; type: cell-based; conditions: 96 isolates
[8] = system: Klebsiella pneumoniae (KPN)
[9] = system: Enterobacter cloacae (ECL); assay: Broth microdilution; type: cell-based
[10] = system: Streptococcus agalactiae strains P0162 and P0425; assay: Microdilution; type: cell-based
[11] = system: Salmonella enterica; assay: VITEK, NCCLS microdilution and disc diffusion of quinolones; type: cell-based
[12] = system: Pseudomonas putida clinical isolates; assay: Agar dilution MIC; type: cell-based
[13] = system: Acinetobacter; assay: Disk diffusion; type: cell-based; conditions: 37 isolates selected as resistant to beta-lactams
[14] = system: N.gonorrhoeae; assay: microbe, parasite or virus in culture; type: cell-based; conditions: Neisseria gonorrhoeae
[15] = system: enterococci; assay: Disk diffusion, urine isolates of BPH patients; conditions: strains isolated post-operatively
[16] = system: S. pneumoniae (SPN); assay: SENTRY Brazil, NCCLS broth microdilution; type: cell-based, Streptococcus pneumoniae
[17] = system: viridans group streptococci (VgS) and Streptococcus bovis; assay: Broth microdilution and disk diffusion; type: cell-based; conditions: nine species
[18] = system: Salmonella serotype Typhimurium; assay: Disk diffusion, food isolates Spain; type: cell-based; conditions: n = 53
[19] = system: H. influenzae (HI); assay: SENTRY Brazil, NCCLS broth microdilution; type: cell-based, Haemophilus influenzae
[20] = system: Salmonella spp.; assay: Agar dilution susceptibility, gastroenteritis isolates Cuba; type: cell-based; conditions: 34 strains, 2002
[21] = system: Streptococcus pneumoniae; assay: BSAC agar dilution, lower respiratory isolates UK and Ireland; type: cell-based
[22] = system: S. pyogenes; assay: Broth microdilution; type: cell-based, Streptococcus pyogenes; conditions: 212 isolates
[23] = system: enterococci; assay: Disk diffusion and E-test, faecal isolates of cancer patients; type: cell-based, Enterococcus; conditions: 38 strains; gentamycin: high level
[24] = system: Nocardia spp.; assay: E-test on Mueller Hinton agar, 81 clinical isolates; type: cell-based
[25] = system: inducible Enterobacteriaceae; assay: SMART 2003, intraabdominal isolates; type: cell-based
[26] = system: Streptococcus pneumoniae; assay: Susceptibility testing; type: cell-based; conditions: 99 isolates tested
[27] = system: Staphylococcus aureus; assay: Susceptibility testing; type: cell-based; conditions: conjunctival isolates 2000–2004
[28] = system: E. coli; assay: SMART 2003 Europe, microdilution; type: cell-based, Escherichia coli; conditions: 1106 isolates
[29] = system: Klebsiella; assay: SMART 2003 Europe, microdilution; type: cell-based, Klebsiella spp.; conditions: 341 isolates
[30] = system: glycopeptide intermediate Staphylococcus species (GISS); assay: VITEK II, screening plate and E test, blood isolates; type: cell-based, coagulase-negative Staphylococci; conditions: 73 GISS strains
[31] = system: Haemophilus influenzae; assay: Susceptibility testing; type: cell-based; conditions: conjunctival isolates 2000–2004
[32] = system: Enterobacteriaceae; assay: SMART 2003 Europe, microdilution; type: cell-based; conditions: 1948 isolates
[33] = system: K. pneumoniae; assay: MIC; type: cell-based, Klebsiella pneumoniae; conditions: BSAC
[34] = system: Salmonella serotype Enteritidis; assay: Disk diffusion, food isolates Spain; type: cell-based; conditions: n = 96
[35] = system: E. coli; assay: Resistance of UTI isolates of renal transplant recipients; type: cell-based, Escherichia coli; conditions: 75 isolates

`CCn1cc(C(=O)O)c(=O)c2ccc(C)nc21` [nalidixic acid] gave a resistance [1]; 1984 of 1.6%, a resistance [1]; 2001 of 19.2% and a resistance [2]; 1984 of 2.6%. The resistance [2]; 2001 was 15.9%, the “resistance rate (NCCLS M100-S13)” value [3] was 14% and the resistant strains [4] was 10%. For the same molecule, the MIC [5] was 16 µg/mL, the resistance ([6]; Germany (carcass meat)) was 9% and the sensitive [7] was 96%. It also gave a resistance [8]; 1984 of 12.2%, a resistance [8]; 2001 of 21.6% and a resistance [9]; 1984 of 2.0%. For the same molecule, the resistance [9]; 2001 was 17.5%.

Work on `CCn1cc(C(=O)O)c(=O)c2cc(F)c(N3CCNCC3)cc21` [norfloxacin] yielded an MIC ([10]; strain P0162 (ParC Ser79Phe, GyrA Glu85Ala)) greater than 256 µg/mL, an MIC ([10]; strain P0425 (ParC Ser79Phe, GyrA Glu85Lys)) greater than 256 µg/mL and an MIC ([11]; read-out: NCCLS MIC, 37 NAL-R strains) of 0.54 µg/mL (≈ 1.69 µM). For the same molecule, the MIC ([11]; read-out: NCCLS MIC, NAL-S strains) was no more than 0.06 µg/mL, the MIC ([11]; read-out: VITEK MIC, 37 strains) was 2 µg/mL (≈ 6.26 µM) and the MIC ([11]; read-out: VITEK MIC, five strains) was less than 0.5 µg/mL. For the same molecule, the MIC [5] was less than 0.1 µg/mL, the MIC [12] was greater than 128 µg/mL and the sensitive [7] was 100%. It also gave a resistant isolates [13] of 100.0%.

Work on `CN(C)[C@@H]1C(O)=C(C(N)=O)C(=O)[C@@]2(O)C(O)=C3C(=O)c4c(O)cccc4[C@@](C)(O)[C@H]3C[C@@H]12` [tetracycline] yielded an MIC ([14]; strain 76mu6) of 8 µg/mL (≈ 18 µM), an MIC ([14]; strain 76mu10) of 8 µg/mL (≈ 18 µM) and an MIC ([14]; strain 92mu6) of 2 µg/mL (≈ 4.5 µM). The MIC ([14]; strain 92mu13) was 2 µg/mL (≈ 4.5 µM), the resistance [15] was 77.8% and the “% S” value [16]; 1998 was 72%. The “% S” value [16]; 1999 was 75%, the “% S” value [16]; 2000 was 82% and the “% S” value [16]; 2001 was 78%. For the same molecule, the “% S” value [16]; 2002 was 86%, the “% S” value [16]; 2003 was 85% and the “% S, range between species” value [17] was 35.0 – 93.9%. For the same molecule, the “resistance rate (NCCLS M100-S13)” value [18] was 72%, the “% S” value [19]; 1998 was 96% and the “% S” value [19]; 1999 was 84%. The “% S” value [19]; 2000 was 95%, the “% S” value [19]; 2001 was 95% and the “% S” value [19]; 2002 was 98%. The “% S” value [19]; 2003 was 96%, the resistance [20] was 53% and the “resistance (PEN-NS >0.06, TET-R >1, ERY-R >0.5, CIP-R >2 mg/L)” value ([21]; Ireland 1999–2000, N 66) was 24.2%. For the same molecule, the “resistance (same cut-offs)” value ([21]; Ireland 2000–2001, N 59) was 25.4%, the “resistance (same cut-offs)” value ([21]; Ireland 2001–2002, N 68) was 16.2% and the “resistance (same cut-offs)” value ([21]; Ireland 2002–2003, N 89) was 10.1%. For the same molecule, the “resistance (same cut-offs)” value ([21]; Ireland 2003–2004, N 76) was 7.9%, the “resistance (same cut-offs)” value ([21]; UK 1999–2000, N 595) was 7.2% and the “resistance (same cut-offs)” value ([21]; UK 2000–2001, N 608) was 6.3%. For the same molecule, the “resistance (same cut-offs)” value ([21]; UK 2001–2002, N 631) was 4.8%, the “resistance (same cut-offs)” value ([21]; UK 2002–2003, N 683) was 5.7% and the “resistance (same cut-offs)” value ([21]; UK 2003–2004, N 709) was 6.2%. For the same molecule, the nonsusceptible [22] was 25.9%, the resistance ([6]; Belgian collection (caecal samples; Belgium, France, Netherlands)) was 33% and the resistant isolates [13] was 100.0%. It also gave a resistant strains [23] of 55%.

With `NC[C@H]1O[C@H](O[C@H]2[C@H](O)[C@@H](O[C@H]3O[C@H](CO)[C@@H](O)[C@H](N)[C@H]3O)[C@H](N)C[C@@H]2N)[C@H](N)C[C@@H]1O` [tobramycin] the susceptible ([1]; NAL-resistant isolates, 2001) was 71.4%, the susceptible ([1]; NAL-susceptible isolates, 2001) was 95.0% and the MIC50 ([24]; Nocardia) was 4 µg/mL (≈ 8.56 µM). For the same molecule, the MIC90 ([24]; Nocardia) was 12 µg/mL (≈ 25.7 µM), the MIC range ([24]; read after 48 and 72 h) was less than 0.016 to 24 µg/mL and the “% susceptible” value ([25]; A/P (N = 200)) was 77%. For the same molecule, the “% susceptible” value ([25]; EU (N = 354)) was 93%, the “% susceptible” value ([25]; LA (N=113)) was 79% and the “% susceptible” value ([25]; NA (N = 163)) was 93%. The resistant isolates [26] was 49.5%, the resistant isolates [27] was 14.6% and the per cent susceptible [28] was 92%. The “resistance rate (NCCLS M100-S13)” value [3] was 0%, the “resistance rate (NCCLS M100-S13)” value [18] was 4% and the per cent susceptible [29] was 91%. The resistance rate [30] was 91,8%, the resistant isolates [31] was 2.6% and the resistant isolates [13] was 10.8%. For the same molecule, the per cent susceptible [32] was 93%, the susceptibility category [33] was “resistant” and the “resistance rate (NCCLS M100-S13)” value [34] was 1%.

Molecule Ampicillin/ Sulbactam [A/S] has a rate of resistance [35] of 34% and a resistant isolates [13] of 10.8%.
